From patent US20260265199A1, “CRYSTALLINE FORMS OF (R)-2-AMINO-5-(4-(2-(3,5-DIFLUOROPHENYL)-2-HYDROXYACETAMIDO)-2-METHYLPHENYL)-N-ISOPROPYLNICOTINAMIDE AND METHODS FOR USING THE SAME” (HIBERCELL, INC., priority 2023, published 2026)
Structures can show the parent of a compound that is named as a salt. Where two headings read alike, the source gives them in different places.

What was measured:
Type in all cases: physicochemical
[1] = Solubility of hemi-fumarate Form A by visual assessment upon solvent addition
Experimental: The solubility of the Form A of the hemi-fumarate salt was evaluated by visual assessment of samples upon solvent addition, employing organic solvents and water. Among the solvents, the Form A of the hemi-fumarate salt had the highest solubility in THF, MeOH, EtOH and acetone (>50 mg/mL).

[2] = Slurry study of Form A of the hemi-fumarate salt (XRPD of solids)
Experimental: XRPD patterns of samples were collected using with an X-ray diffractometer (Bruker D8 advance). The system was equipped with LynxEye detector. Samples were scanned from 3 to 40° 2θ, at a step size 0.02° 2θ. The tube voltage and current were 40 KV and 40 mA, respectively.
Slurry studies of the Form A of the hemi-fumarate salt were conducted at room temperature for four days and at 50° C. for one day. About 10 mg to 35 mg of the Form A of the hemi-fumarate salt was slurried in different solvents at RT or 50° C. for one to four days. Solid samples were collected by filtration and analyzed by XRPD (Example 1, XRPD) at a specific time. […] The overlay of XRPD patterns from the slurry study of the Form A of the hemi-fumarate salt of the compound of formula (I) is depicted in FIG. 11.

[3] = Solubility in water and biologically relevant media (SGF, FeSSIF, FaSSIF), HPLC, pH, XRPD; settings: 37° C.; for XRPD of the filter cake: 24 h
Experimental: (§1) HPLC analysis was performed with an Agilent HPLC 1260 series instrument.
The solubility of the Form A of the hemi-fumarate salt was evaluated in water and biologically relevant media, SGF, FeSSIF, and FaSSIF. About 10 mg of the sample was weighed into sample vials and then 2 mL of three bio-relevant media and water were added to each respective sample to make suspensions. All suspensions were shaken at 37° C. with 200 rpm. […] The XRPD pattern from the solubility test of the Form A of the hemi-fumarate salt of the compound of formula (I) is depicted in FIG. 12.

[4] = Physical stability under high humidity (92.5% RH); settings: 11 days
Experimental: The physical stability of the Form A of the hemi-fumarate salt was evaluated under high humidity (92.5% RH) for 11 days.

[5] = Physical and chemical stability at 40° C. (75% RH) and 60° C. (XRPD, HPLC); settings: for Physical and chemical stability / XRPD - 29 days / Purity (%) - 29 days: 29 days
Experimental: as §1
Appropriate amount of the Form A of the hemi-fumarate salt was placed at 40° C. (75% RH) and 60° C. for several days. The solids were analyzed by XRPD (Example 1, XRPD) and HPLC (Example 1, HPLC) at appropriate time points. The physical and chemical stabilities of the Form A of the hemi-fumarate salt was conducted at 60° C. and at 40° C. (75% RH) for 29 days. No obvious degradation occurred and no form change was observed under testing conditions. […] (75% RH) for 29 days.

[6] = Inter-conversion study (competitive slurry) of hemi-fumarate Form A and Form B in IPA; settings: RT and 50° C.
Experimental: Equal amount of the Form A of the hemi-fumarate salt and the Form B of the hemi-fumarate salt were added into IPA, and the suspensions were stirred at RT or 50° C. for 3 days, respectively. Residual solids were obtained and characterized. […] The overlay of the XRPD pattern from the inter-conversion study of the hemi-fumarate salt is depicted in FIG. 15.

[7] = Slurry study of Form A of the hemi-fumarate salt (XRPD of solids); settings: room temperature, three days (footnote *)

Cc1cc(NC(=O)[C@H](O)c2cc(F)cc(F)c2)ccc1-c1cnc(N)c(C(=O)NC(C)C)c1 [Form A of the hemi-fumarate salt, (R)-2-amino-5-(4-(2-(3,5-difluorophenyl)-2-hydroxyacetamido)-2-methylphenyl)-N-isopropylnicotinamide]
solubility ([1]; 2-butanone, organic solvent or mixture, thermodynamic from solid, 2-butanone, read-out: Solubility): > 27500 µg/mL | solubility ([1]; Acetone): >50000 µg/mL | solubility ([1]; EtOAc, organic solvent or mixture, thermodynamic from solid, EtOAc, read-out: Solubility): > 9800 µg/mL | solubility ([1]; EtOH): >53400 µg/mL | solubility ([1]; EtOH, organic solvent or mixture, thermodynamic from solid, EtOH, read-out: Solubility): > 50000 µg/mL | solubility ([1]; IPA, organic solvent or mixture, thermodynamic from solid, IPA, read-out: Solubility): > 17800 µg/mL | solubility ([1]; IPAc, organic solvent or mixture, thermodynamic from solid, IPAc, read-out: Solubility): > 2100 µg/mL | solubility ([1]; MTBE, organic solvent or mixture, thermodynamic from solid, MTBE, read-out: Solubility): < 2200 µg/mL | solubility ([1]; MeCN, organic solvent or mixture, thermodynamic from solid, MeCN, read-out: Solubility): > 3200 µg/mL | solubility ([1]; MeOH): >62200 µg/mL | solubility ([1]; MeOH, organic solvent or mixture, thermodynamic from solid, MeOH, read-out: Solubility): > 50000 µg/mL | solubility ([1]; THF): >81800 µg/mL | solubility ([1]; THF, organic solvent or mixture, thermodynamic from solid, THF, read-out: Solubility): > 50000 µg/mL | solubility ([1]; acetone, organic solvent or mixture, thermodynamic from solid, Acetone, read-out: Solubility): > 50000 µg/mL | solubility ([1]; heptane, organic solvent or mixture, thermodynamic from solid, Heptane, read-out: Solubility): < 630 µg/mL | solubility ([1]; isobutanol, organic solvent or mixture, thermodynamic from solid, Isobutanol, read-out: Solubility): > 5800 µg/mL | solubility ([1]; toluene, organic solvent or mixture, thermodynamic from solid, Toluene, read-out: Solubility): < 960 µg/mL | solubility ([1]; water, thermodynamic from solid, Water, read-out: Solubility): < 830 µg/mL | XRPD result after slurry ([2]; Acetone/heptane (1:4), 50° C., 1 day): Form A | XRPD result after slurry ([2]; Acetone/heptane (1:4), room temperature, 4 days): Form A | XRPD result after slurry ([2]; EtOAc, 50° C., 1 day): Form A | XRPD result after slurry ([2]; Heptane, 50° C., 1 day): Form A | XRPD result after slurry ([2]; IPAc, 50° C., 1 day): Form A | XRPD result after slurry ([2]; Isobutanol, 50° C., 1 day): Form A | XRPD result after slurry ([2]; Isobutanol, room temperature, three days (footnote *)): Form A* | XRPD result after slurry ([2]; MTBE, 50° C., 1 day): Form A | XRPD result after slurry ([2]; MTBE, room temperature, 4 days): Form A | XRPD result after slurry ([2]; MeCN, 50° C., 1 day): Form A | XRPD result after slurry ([2]; MeCN, room temperature, 4 days): Form A | XRPD result after slurry ([2]; MeOH/water (1:4), 50° C., 1 day): mixture of the Form B of the hemi-fumarate salt of the compound of formula (I) (Form B) and the free base Form of the compound of formula (I) (FBF) | XRPD result after slurry ([2]; Toluene, 50° C., 1 day): Form A | XRPD result after slurry ([2]; Water, 50° C., 1 day): mixture of the Form B of the hemi-fumarate salt of the compound of formula (I) (Form B) and the free base Form of the compound of formula (I) (FBF) | pH of the filtrate ([3]; FaSSIF, 0.5 hours): 6.39 | pH of the filtrate ([3]; FaSSIF, 2 hours): 6.36 | XRPD of the filter cake ([3]; FaSSIF): exhibited dissociation into the free base Form | XRPD of the filter cake ([3]; FaSSIF, listed as Form A of the Hemi-Fumarate Salt): Changed | pH of the filtrate ([3]; FaSSIF, 24 hours): 5.57 | pH of the filtrate ([3]; FeSSIF, 0.5 hours): 5.14 | pH of the filtrate ([3]; FeSSIF, 2 hours): 4.88 | XRPD of the filter cake ([3]; FeSSIF): exhibited dissociation into the free base Form | XRPD of the filter cake ([3]; FeSSIF, listed as Form A of the Hemi-Fumarate Salt): Changed | pH of the filtrate ([3]; FeSSIF, 24 hours): 4.71 | Solubility comparison between media ([3]; SGF vs FeSSIF, FaSSIF and water): more soluble in SGF than in FeSSIF, FaSSIF, and water | pH of the filtrate ([3]; SGF, 0.5 hours): 1.12 | pH of the filtrate ([3]; SGF, 2 hours): 1.10 | XRPD of the filter cake ([3]; SGF): No XRPD pattern change was observed | pH of the filtrate ([3]; SGF, 24 hours): 1.36 | pH of the filtrate ([3]; Water, 0.5 hours): 3.77 | pH of the filtrate ([3]; Water, 2 hours): 2.97 | XRPD of the filter cake ([3]; Water): exhibited dissociation into the free base Form | XRPD of the filter cake ([3]; Water, listed as Form A of the Hemi-Fumarate Salt): Changed | pH of the filtrate ([3]; Water, 24 hours): 2.91 | solubility at 24 h ([3]; pH 1.36, simulated gastric fluid, thermodynamic from solid, SGF, 24 hours): 4370 µg/mL | solubility at 24 h ([3]; pH 2.91, thermodynamic from solid, Water, 24 hours): 81 µg/mL | solubility at 2 h ([3]; pH 2.97, thermodynamic from solid, Water, 2 hours): 81 µg/mL | solubility at 0.5 h ([3]; pH 3.77, thermodynamic from solid, Water, 0.5 hours): 10 µg/mL | solubility at 24 h ([3]; pH 4.71, thermodynamic from solid, FeSSIF, 24 hours): 41 µg/mL | solubility at 2 h ([3]; pH 4.88, thermodynamic from solid, FeSSIF, 2 hours): 149 µg/mL | solubility at 0.5 h ([3]; pH 5.14, thermodynamic from solid, FeSSIF, 0.5 hours): 214 µg/mL | solubility at 24 h ([3]; pH 5.57, thermodynamic from solid, FaSSIF, 24 hours): 29 µg/mL | solubility at 2 h ([3]; pH 6.36, thermodynamic from solid, FaSSIF, 2 hours): 16 µg/mL | solubility at 0.5 h ([3]; pH 6.39, thermodynamic from solid, FaSSIF, 0.5 hours): 22 µg/mL | solubility at 0.5 h ([3]; simulated gastric fluid, thermodynamic from solid, SGF, 0.5 hours): 4290 µg/mL | solubility at 2 h ([3]; simulated gastric fluid, thermodynamic from solid, SGF, 2 hours): 4230 µg/mL | Physical stability (form by XRPD) [4]: No form change was detected | Purity (%) - 8 days ([5]; 40° C. (75% RH), HPLC): 99.86% | Physical and chemical stability ([5]; 40° C. (75% RH)): physically and chemically stable | XRPD - 29 days ([5]; 40° C. (75% RH)): No Change | Purity (%) - 29 days ([5]; 40° C. (75% RH), HPLC): 99.92% | Purity (%) - 8 days ([5]; 60° C., HPLC): 99.86% | Physical and chemical stability ([5]; 60° C.): physically and chemically stable | XRPD - 29 days ([5]; 60° C.): No Change | Purity (%) - 29 days ([5]; 60° C., HPLC): 99.91% | Purity (%) ([5]; Starting material (before storage), HPLC): 99.87% | Relative stability of hemi-fumarate Form A vs Form B [6]: more stable form | XRPD result after slurry ([7]; Heptane): Form A* | XRPD result after slurry ([7]; IPAc): Form A* | XRPD result after slurry ([7]; Toluene): Form A*
